One assay concerns the target human FPR1 (Homo sapiens (Human), UniProt P21462). The experiment in a line: FPR1 cyclic adenosine monophosphate (cAMP) assay. It is filed as cell-based. To be noted: CHO cells overexpressing human FPR1; forskolin 10 µM; inhibition of cAMP production; read-out: hFPR1 cAMP EC50. The method, boiled down: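 CHO cells overexpressing human FPR1 (4,000 cells/well) stimulated with 10 µM forskolin plus 200 µM IBMX in the presence of compound (0.020 nM–100 µM, 1% DMSO), 30 min at room temperature. Intracellular cAMP measured by HTRF. Inhibition of cAMP production fitted to a 4-parameter logistic equation.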

Another assay has as its target human FPR2 (Homo sapiens (Human), UniProt P25090). Briefly: FPR2 cyclic adenosine monophosphate (cAMP) assay. Format: cell-based. To be noted: CHO cells overexpressing human FPR2; forskolin 5 µM; inhibition of cAMP production; read-out: hFPR2 cAMP2 EC50. The method, boiled down:
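CHO cells overexpressing human FPR2 (2,000/well) incubated 30 min at room temperature with compound (0.020 nM–100 µM, 1% DMSO), 5 µM forskolin and 200 µM IBMX.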

pEC50: −log10 of the molar value.

Chain of human FPR2 (P25090 whole entry): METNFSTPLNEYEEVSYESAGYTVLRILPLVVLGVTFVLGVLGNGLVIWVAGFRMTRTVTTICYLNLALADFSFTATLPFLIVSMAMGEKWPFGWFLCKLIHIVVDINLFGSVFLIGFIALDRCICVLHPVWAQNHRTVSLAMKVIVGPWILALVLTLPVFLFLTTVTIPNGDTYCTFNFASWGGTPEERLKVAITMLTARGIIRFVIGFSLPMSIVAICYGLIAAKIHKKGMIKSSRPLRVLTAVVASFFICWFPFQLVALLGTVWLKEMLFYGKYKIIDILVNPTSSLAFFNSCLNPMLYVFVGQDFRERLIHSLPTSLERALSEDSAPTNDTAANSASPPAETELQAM
Chain of human FPR1 (P21462 whole entry): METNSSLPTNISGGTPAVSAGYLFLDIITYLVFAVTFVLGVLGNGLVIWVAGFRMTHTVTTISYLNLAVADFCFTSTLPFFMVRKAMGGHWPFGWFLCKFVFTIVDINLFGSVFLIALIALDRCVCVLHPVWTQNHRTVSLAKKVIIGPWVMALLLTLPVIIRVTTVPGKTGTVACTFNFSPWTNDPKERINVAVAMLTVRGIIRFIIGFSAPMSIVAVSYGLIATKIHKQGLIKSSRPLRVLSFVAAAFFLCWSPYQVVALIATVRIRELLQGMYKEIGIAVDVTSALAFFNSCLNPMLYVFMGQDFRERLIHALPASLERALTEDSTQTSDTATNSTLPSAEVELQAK

With `COc1cc(F)c([C@@H]2CN(c3c(C)ccn(CC4CC4)c3=O)C(=O)[C@H]2NC(=O)c2ccc(OC(F)(F)F)cc2)c(F)c1` [Example 151], the negative logarithm of the EC50 (pEC50) is 9.30 on human FPR1 and 8.41 at human FPR2.

Take `COc1cc(F)c([C@@H]2CN(c3ccnc(N4C[C@@H](C)N(C)[C@@H](C)C4)c3C(F)(F)F)C(=O)[C@H]2NC(=O)c2ccc(OC(F)F)cc2)c(F)c1` [Example 152]: the pEC50 at human FPR1 was 6.34; at human FPR2, 8.41.

As for `COCC(CO)n1cccc(N2C[C@@H](c3c(F)cc(OC)cc3F)[C@H](NC(=O)c3ccc(OC(F)(F)F)cc3)C2=O)c1=O` (some centres unmarked) [Example 153], the pEC50 was 8.38 on human FPR1 and 8.40 at human FPR2.

Consider `COCC(CO)n1cccc(N2C[C@@H](c3ccc(Cl)cc3)[C@H](NC(=O)c3ccc(OC(F)(F)F)cc3)C2=O)c1=O` (some centres unmarked) [Example 154], for which the negative-log EC50 (pEC50) on human FPR1 was 8.48; on human FPR2 it was 8.40.

Take `COc1cc(F)c([C@@H]2CN(c3cccn(CC(O)C(F)(F)F)c3=O)C(=O)[C@H]2NC(=O)c2ccc(OC(F)(F)F)cc2)c(F)c1` (some centres unmarked) [Example 155]: the pEC50 on human FPR1 was 8.03; on human FPR2 it was 8.40.

For `COc1cc(F)c([C@@H]2CN(c3cccn(CC(OC)C(F)(F)F)c3=O)C(=O)[C@H]2NC(=O)c2ccc(OC(F)(F)F)cc2)c(F)c1` (some centres unmarked) [Example 156], the negative logarithm of the EC50 (pEC50) on human FPR1 was 8.89; on human FPR2, 8.40.

For `COc1cc(F)c([C@@H]2CN(c3cccnc3OC3CCOC3)C(=O)[C@H]2NC(=O)c2ccc(OC(F)F)cc2)c(F)c1` (some centres unmarked) [Example 157], the pEC50 at human FPR1 is 7.00; at human FPR2, 8.40.

With `CCn1cccc(N2C[C@@H](c3c(F)cc(OC)cc3F)[C@H](NC(=O)c3ccc(C(F)(F)F)cc3)C2=O)c1=O` [Example 159], the pEC50 at human FPR1 was 7.13; at human FPR2, 8.39.

`COc1cc(F)c([C@@H]2CN(c3nccc(N4C[C@@H]5C[C@H]4CN5C)c3C#N)C(=O)[C@H]2NC(=O)c2ccc(Cl)cc2)c(F)c1` [Example 160]: the negative logarithm of the EC50 (pEC50) on human FPR1 was 5.96; at human FPR2, 8.39.

Regarding `COc1cc(F)c([C@@H]2CN(c3cccn(CC(OC)C(F)(F)F)c3=O)C(=O)[C@H]2NC(=O)c2ccc(OC(F)F)cc2)c(F)c1` (some centres unmarked) [Example 161], the negative-log EC50 (pEC50) is 8.47 at human FPR1 and 8.39 at human FPR2.

As for `COCCn1cccc(N2C[C@@H](c3ccc(Cl)cc3)[C@H](NC(=O)c3ccc(OC(F)F)cc3)C2=O)c1=O` [Example 162], the results for the negative logarithm of the EC50 (pEC50) at human FPR1 and at human FPR2 were 8.03 and 8.39, respectively.

Take `COc1cc(F)c([C@@H]2CN(c3nccc(NC4CC4)c3C(F)(F)F)C(=O)[C@H]2NC(=O)c2ccc(Cl)cc2)c(F)c1` [Example 163]: the pEC50 at human FPR1 is 5.92; on human FPR2, 8.38.

Consider `COc1cc(F)c([C@@H]2CN(c3cccn(CCN4CC5(COC5)C4)c3=O)C(=O)[C@H]2NC(=O)c2ccc(OC(F)F)cc2)c(F)c1` [Example 164], for which the pEC50 at human FPR1 was 6.54; at human FPR2, 8.38.

As to `CCn1ccc(C)c(N2C[C@@H](c3ccc(OC)cc3F)[C@H](NC(=O)c3ccc(OC(F)F)cc3)C2=O)c1=O` [Example 165], the negative logarithm of the EC50 (pEC50) on human FPR1 was 8.77; on human FPR2, 8.38.

Take `COc1cc(F)c([C@@H]2CN(c3nccc(NCC(C)(C)O)c3C(F)(F)F)C(=O)[C@H]2NC(=O)c2ccc(Cl)cc2)c(F)c1` [Example 166]: the results for the pEC50 at human FPR1 and at human FPR2 were 5.64 and 8.37, respectively.

`COc1cc(F)c([C@@H]2CN(c3nccc(N4C[C@@H](C)N(C)[C@@H](C)C4)c3C#N)C(=O)[C@H]2NC(=O)c2ccc(Cl)cc2)c(F)c1` [Example 167]: the pEC50 on human FPR1 was less than 5.00; at human FPR2 it was 8.37.

Take `COc1cc(F)c([C@@H]2CN(c3cc(C(F)(F)F)cn(C)c3=O)C(=O)[C@H]2NC(=O)c2ccc(OC(F)F)cc2)c(F)c1` [Example 168]: the negative logarithm of the EC50 (pEC50) was 5.80 at human FPR1 and 8.37 on human FPR2.

On to `CCn1cccc(N2C[C@@H](c3c(F)cc(OC)cc3F)[C@H](NC(=O)c3ccc(OC(F)F)cc3)C2=O)c1=O` [Example 169], for which the results for the pEC50 on human FPR1 and at human FPR2 were 7.68 and 8.37, respectively.

In the case of `CCn1ccc(C)c(N2C[C@@H](c3ccc(OC)cc3)[C@H](NC(=O)c3ccc(OC(F)(F)F)cc3)C2=O)c1=O` [Example 170], the pEC50 on human FPR1 is 9.05; at human FPR2, 8.36.

`COCC(C(=O)N(C)C)n1cccc(N2C[C@@H](c3c(F)cc(OC)cc3F)[C@H](NC(=O)c3ccc(OC(F)F)cc3)C2=O)c1=O` (some centres unmarked) [Example 172]: the pEC50 at human FPR1 was 7.41; at human FPR2, 8.35.

Turning to `COc1cc(F)c([C@@H]2CN(c3cccn(CC(C)O)c3=O)C(=O)[C@H]2NC(=O)c2ccc(OC(F)(F)F)cc2)c(F)c1` (some centres unmarked) [Example 173], the pEC50 on human FPR1 was 7.92; at human FPR2, 8.35.

As to `COc1cc(F)c([C@@H]2CN(c3cccn(CCO)c3=O)C(=O)[C@H]2NC(=O)c2ccc(OC(F)(F)F)cc2)c(F)c1` [Example 174], the negative-log EC50 (pEC50) on human FPR1 was 7.17; at human FPR2, 8.35.

As for `COCC(CO)n1cccc(N2C(=O)[C@@H](NC(=O)c3ccc(OC(F)(F)F)cc3)[C@H](c3c(F)cc(OC)cc3F)[C@@H]2C)c1=O` (some centres unmarked) [Example 175], the negative-log EC50 (pEC50) on human FPR1 was 8.03; at human FPR2 it was 8.34.

`COc1cc(F)c([C@@H]2CN(c3c(C)ccn(CC(C)O)c3=O)C(=O)[C@H]2NC(=O)c2ccc(OC(F)F)cc2)c(F)c1` (some centres unmarked) [Example 176]: the results for the negative logarithm of the EC50 (pEC50) at human FPR1 and at human FPR2 were 8.19 and 8.34, respectively.

In the case of `COc1cc(F)c([C@@H]2CN(c3nc(N(C)C(C)=O)ccc3F)C(=O)[C@H]2NC(=O)c2ccc(OC(F)F)cc2)c(F)c1` [Example 177], the negative logarithm of the EC50 (pEC50) was 7.82 at human FPR1 and 8.34 at human FPR2.

For the compound `COCCn1ccc(C)c(N2C[C@@H](c3ccc(OC)cc3)[C@H](NC(=O)c3ccc(OC(F)(F)F)cc3)C2=O)c1=O` [Example 178], the negative logarithm of the EC50 (pEC50) at human FPR1 is 10.00; at human FPR2, 8.33.

Turning to `COc1cc(F)c([C@@H]2CN(c3cccn(CC(C)(CO)CO)c3=O)C(=O)[C@H]2NC(=O)c2ccc(OC(F)F)cc2)c(F)c1` [Example 179], the pEC50 at human FPR1 is 7.04; at human FPR2, 8.33.

On to `COc1cc(N2C[C@@H](C)N(C)[C@@H](C)C2)nc(N2C[C@@H](c3c(F)cc(OC)cc3F)[C@H](NC(=O)c3ccc(Cl)cc3)C2=O)c1` [Example 180], for which the negative-log EC50 (pEC50) at human FPR1 is less than 5.00; on human FPR2, 8.33.

As to `COc1cc(F)c([C@@H]2CN(c3nccc(N4C[C@@H](C)N(C)[C@@H](C)C4)c3C(F)(F)F)C(=O)[C@H]2NC(=O)c2ccc(Cl)cc2)c(F)c1` [Example 181], the pEC50 at human FPR1 is 6.00; on human FPR2, 8.32.

Regarding `COc1ccc([C@@H]2CN(c3c(C)ccn(CC(F)F)c3=O)C(=O)[C@H]2NC(=O)c2ccc(OC(F)(F)F)cc2)c(F)c1` [Example 182], the pEC50 was 8.74 at human FPR1 and 8.32 on human FPR2.

Consider `CCn1ccc(C)c(N2C[C@@H](c3ccc(OC)cc3F)[C@H](NC(=O)c3ccc(OC(F)(F)F)cc3)C2=O)c1=O` [Example 183], for which the negative-log EC50 (pEC50) was 9.22 on human FPR1 and 8.32 on human FPR2.

On to `COc1cc(F)c([C@@H]2CN(c3cccc(OC(F)F)c3)C(=O)[C@H]2NC(=O)c2ccc(OC(F)(F)F)cc2)c(F)c1` [Example 184], for which the values for the pEC50 on human FPR1 and at human FPR2 were 8.01 and 8.32, respectively.

`COCCn1ccc(C)c(N2C[C@@H](c3c(F)cc(OC)cc3F)[C@H](NC(=O)c3ccc(OC(F)(F)F)cc3)C2=O)c1=O` [Example 185]: the pEC50 at human FPR1 was 9.15; on human FPR2, 8.32.

Consider `COc1cc(F)c([C@@H]2CN(c3cccn(CC(OC)C(F)(F)F)c3=O)C(=O)[C@H]2NC(=O)c2ccc(OC(F)F)cc2)c(F)c1` (some centres unmarked) [Example 186], for which the negative logarithm of the EC50 (pEC50) is 8.52 on human FPR1 and 8.31 at human FPR2.

On to `COc1cc(F)c([C@@H]2CN(c3cccn(CC(C)(CO)CO)c3=O)C(=O)[C@H]2NC(=O)c2ccc(OC(F)(F)F)cc2)c(F)c1` [Example 187], for which the pEC50 on human FPR1 is 7.42; on human FPR2, 8.31.

Take `COc1cc(F)c([C@@H]2CN(c3cccn(C(F)F)c3=O)C(=O)[C@H]2NC(=O)c2ccc(OC(F)(F)F)cc2)c(F)c1` [Example 188]: the pEC50 on human FPR1 was 7.42; at human FPR2 it was 8.31.

As to `COc1cc(F)c([C@@H]2CN(c3cc(Cl)cn(C)c3=O)C(=O)[C@H]2NC(=O)c2ccc(Cl)cc2)c(F)c1` [Example 189], the pEC50 is 5.47 at human FPR1 and 8.30 at human FPR2.

For `COc1cc(F)c([C@@H]2CN(c3cccn(CC(F)(F)F)c3=O)C(=O)[C@H]2NC(=O)c2ccc(OC(F)F)cc2)c(F)c1` [Example 190], the values for the pEC50 at human FPR1 and at human FPR2 were 6.89 and 8.30, respectively.

For the compound `COc1cc(F)c([C@@H]2CN(c3cccn(CC(F)(F)F)c3=O)C(=O)[C@H]2NC(=O)c2ccc(OC(F)(F)F)cc2)c(F)c1` [Example 191], the results for the negative logarithm of the EC50 (pEC50) on human FPR1 and on human FPR2 were 7.05 and 8.30, respectively.

For `COc1ccc([C@@H]2CN(c3c(C)ccn(CC4CC4)c3=O)C(=O)[C@H]2NC(=O)c2ccc(OC(F)F)cc2)c(F)c1` [Example 192], the values for the pEC50 on human FPR1 and on human FPR2 were 9.10 and 8.29, respectively.

With `COc1cc(F)c([C@@H]2CN(c3cccn(C)c3=O)C(=O)[C@H]2NC(=O)c2ccc(Cl)cc2)c(F)c1` [Example 193], the negative logarithm of the EC50 (pEC50) at human FPR1 is 6.24; on human FPR2, 8.29.

Take `COCC(CN)n1cccc(N2C[C@@H](c3c(F)cc(OC)cc3F)[C@H](NC(=O)c3ccc(OC(F)(F)F)cc3)C2=O)c1=O` (some centres unmarked) [Example 194]: the negative-log EC50 (pEC50) on human FPR1 was 6.82; at human FPR2, 8.29.

Turning to `COc1cc(F)c([C@@H]2CN(c3c(C)ccn(CC4CC4)c3=O)C(=O)[C@H]2NC(=O)c2ccc(OC(F)F)cc2)c(F)c1` [Example 195], the negative logarithm of the EC50 (pEC50) on human FPR1 was 8.89; on human FPR2, 8.28.

For the origin of these results see patent US20230348426A1, “OXOPYRROLIDINE FPR2 AGONISTS” (Bristol-Myers Squibb Company, priority 2020, published 2023).
